Measurements from ChEMBL document CHEMBL3301451, “MMV Malaria Box gametocyte functional viability assay screening”.

What was measured:
Type in all cases: functional
Parameters in all cases: concentration or dose not given beside the values
[1] = test system: Plasmodium falciparum; experiment: (§1) MMV: P. falciparum NF54 functionally mature Stage V gametocytes were incubated for 24 hr in the presence of the test compounds. Gamete formation was then triggered by addition of 2uM xantheurenic acid and temperature decrease to ~20C. Male gamete exflagellation was recorded and analysed by automated microscopy after 20 min. All compounds were tested in 4 independent experiments and data presented here is the mean.
[2] = test system: Plasmodium falciparum; experiment: as §1, with “Female” for “Male”, “formation” for “exflagellation”, “24 hr later” for “and analysed”, “detection of surface labelling of female gametes with a Cy3-conjugated antibody reactive to Pfs25.” for “after 20 min.”; details: NF54, 24 h
[3] = test system: Plasmodium berghei; experiment: MMV: P. berghei-infected blood was withdrawn from mice by cardiac pucture before being immediately added to ookinete culture medium containing test compounds. 26 hr later, GFP-positive ookinetes were identified and counted by automated microscopy. All compounds were tested in 4 independent experiments and data presented here is the mean.

SMILES | inhibition [1] | inhibition [2] | inhibition [3]
Cc1ccc2nc(C)cc(Nc3cccc(C(F)(F)F)c3)c2c1.Cl | -27.5% | -16.2% | -4.574%
Clc1ccc2c(N3CCCC3)ccnc2c1 | 33.7% | 5.78% | -9.994%
Cn1c(=O)c2cc(C(=O)NCCCN3CCCCCC3)sc2c2ccccc21 | 20.7% | -16.3% | 5.415%
O=C(O)C(=O)O.Oc1ccc(Br)cc1CN1CCN(Cc2cccc(F)c2)CC1 | 27.2% | -17.6% | -11.78%
CCCCCC(=O)N1c2ccccc2N=C2CC(c3ccc(OC)c(OC)c3)CC(O)=C2C1c1ccc(C(F)(F)F)cc1 (stereo not given) | 59.4% | -11.5% | -9.202%
COc1ccc2c(c1)OC(O)(C(F)(F)C(F)(F)F)CC2=O (stereo not given) | -139% | -4.89% | -0.6954%
Cc1ccc(OCCCCCCNCCO)c(C)c1 | -19.1% | 0.189% | -11.75%
Cc1ccc2cc3c(N)c4c(C)ccc(C)c4nc3nc2c1 | -9.27% | -28.1% | -10.8%
CCOc1ccc2nc(C)cc(Nc3ccc(N(C)C)cc3)c2c1.Cl | -23.6% | -42.3% | -13.58%
COCCNC(=O)c1ccc(OC2CCN(Cc3ccc(F)c(F)c3)CC2)c(Cl)c1 | 16.4% | -14.3% | -5.71%
Nc1ccc(-c2nc3cc(Cc4ccc5[nH]c(-c6ccc(N)cc6)nc5c4)ccc3[nH]2)cc1 | 26.6% | 2.76% | -14.26%
O=C(Nc1ccc(F)c(Cl)c1)Nc1ccc(Cl)c(Cl)c1 | 15.7% | -12.2% | -10.47%
COCCNCC(O)Cn1c2ccc(Cl)cc2c2cc(Cl)ccc21 (stereo not given) | -2.59% | -7.62% | -6.812%
COc1cc(CNCCc2ccc(Cl)cc2)cc(OC)c1O | -14.1% | -40.5% | -10.96%
COc1ccc2c(c1OC)C(=O)N1c3ccccc3N=C(c3ccc(C)cc3)CC21 (stereo not given) | 8.91% | -8.58% | -1.051%
Cc1ccc(-c2cc3nc4c(c(O)n3n2)CCCC4)cc1 | 22.3% | -14.6% | 12.06%
CCOc1ccc2nc(C)cc(Nc3ccc(Br)cc3)c2c1 | -29.1% | -27.4% | -16.41%
O=C(Nc1ccc(-c2nc3cc(NC(=O)c4ccc(Cl)cc4)ccc3[nH]2)cc1)c1ccc(Cl)cc1 | -17.6% | -21.8% | -7.523%
COc1ccc(-c2cn3c(C(=O)Nc4ccccc4Cl)c(-c4ccccc4)c4c3n2CCCC4)cc1 | -67.8% | -34.6% | 15.55%
Cc1cc(N2CCN(C3CCCC3)CC2)n2c(nc3ccccc32)c1C#N | 6.61% | -12.2% | -5.169%
O=C1c2ccccc2-c2nnc(-c3ccc(Br)cc3)cc21 | 19.4% | -19.6% | 9.656%
Cc1sc2ncnc(Sc3nc4ccccc4[nH]3)c2c1C | 30.8% | -10.9% | 65.53%

SMILES | inhibition [1] | inhibition [2] | inhibition [3]
Cc1ccc(-c2cc3c(nn2)-c2ccccc2C3=O)cc1 | 30.4% | -20.4% | 22.47%
COC(=O)c1ccc(Cl)c2c1C1C=CCC1C(c1cccc3ccccc13)N2 (stereo not given) | 42.4% | 10.4% | -8.751%
COc1cc(C(=O)ON=C(N)Cc2cccc3ccccc23)cc(OC)c1OC | -12.8% | -26.8% | -15.26%
CC(C)(C)CC(C)(C)NCC(O)COc1ccc2c(c1)CCC2.Cl (stereo not given) | -54.4% | -4.34% | -7.207%
COc1ccc(-c2nonc2NC(=O)c2cccc(Cl)c2)cc1OC | 18.1% | 12% | -15.75%
CSc1ccccc1C(=O)Nc1nc(-c2ccccn2)cs1 | 20.5% | -18.6% | -9.487%
COc1cccc(NC(=O)Cn2c(C)c(C#N)c3ccccc32)c1 | 21.9% | -23.6% | -1.894%
O=C(Nc1ccc(Br)cc1)Nc1cccc(Cl)c1 | 24.2% | -16.5% | -16.14%
COc1cccc(Nc2nc(N)c3ccccc3n2)c1.Cl | -35.2% | -36.4% | -11.42%
COc1ccc(NC(=O)C2c3ccccc3C(=O)N(CC(C)C)C2c2cccs2)cc1 (stereo not given) | 22.3% | 13.9% | -10.74%
Cc1cc(NCCN2CCCCC2)c2ccc3ccccc3c2n1 | -47.9% | 7.19% | -8.584%
OCCNc1nc(Nc2ccc(Cl)c(Cl)c2)nc2ccccc12 | -35.4% | -25.8% | 17.26%
COc1cc(C(=O)Nc2nc3c(cc4c5c(cccc53)CC4)s2)cc(OC)c1OC | -1.82% | -22.3% | 5.808%
Cc1cc(NC(=O)c2ccc(-c3ccccc3)cc2)no1 | 18.9% | -45.6% | -9.578%
COc1ccc(Nc2nc(NCc3ccccc3)c3ccccc3n2)cc1 | -30.2% | -14.7% | -12.84%
CCN(CC)c1ccc(NC(=O)c2cccs2)cc1 | 44.7% | -5.42% | 23.39%
CCN(Cc1ccccc1)C1CCN(Cc2cc(Br)ccc2O)CC1.O=C(O)C(=O)O | 7.05% | -4.68% | 11.31%
CC(C)(C)CC(C)(C)NCC(O)COc1ccc(Cl)cc1Cl (stereo not given) | -10.7% | -45.2% | -15.58%
COc1ccc(CCNC(=O)c2cc(S(=O)(=O)N3CC(C)CC(C)C3)ccc2Sc2ccc(F)cc2)cc1OC (stereo not given) | -26.1% | 4.07% | -21.03%
COc1ccc(CCN2CCC(CN(C)Cc3cnn(-c4ccccc4)c3)CC2)cc1 | -4.67% | -27.5% | -8.146%
COc1ccc2nc(N)nc(C)c2c1 | 45.7% | 6.91% | -8.497%
CCOc1ccc(-n2cc(-c3ccccc3)c3c(SCc4cc(C)ccc4C)ncnc32)cc1 | 13% | -11.5% | -4.1%

SMILES | inhibition [1] | inhibition [2] | inhibition [3]
CCN(CC)CCNc1ncnc2c1[nH]c1ccc(Br)cc12 | -106% | 13.8% | 9.06%
COc1cc2c(cc1OC)C1=NNC(=O)C1=NC(C)(C)C2 | 52.9% | -26.2% | -11.77%
O=C(NC(c1ccccc1)c1ccc2cccnc2c1O)c1ccccc1 (stereo not given) | 5.16% | -22.7% | 6.162%
Cc1cc(=O)oc2c1ccc1oc(C(=O)c3ccccc3)c(C)c12 | -11.5% | -19.6% | 6.058%
CC1CCCCN1CCCNC(=O)c1ccc2c(c1)sc1nc(-c3ccc(F)cc3)cn12 (stereo not given) | -15.9% | -12.6% | 0.9156%
CCOC(=O)C1=C(c2ccccc2)N=c2sc(=Cc3cc(C)n(-c4ccc(F)cc4)c3C)c(=O)n2C1c1cccc(OC)c1OC (stereo not given) | 17.4% | -0.952% | -41.23%
FC(F)(F)c1cccc(Nc2nc3ccccc3nc2Nc2cccc(C(F)(F)F)c2)c1 | 24.6% | -14.6% | -0.8978%
Cl.Oc1ccccc1CNCC12CC3CC(CC(C3)C1)C2 | -27.5% | -6.61% | -22.21%
CCOc1cc2c(cc1OCC)C(c1cc(OC)c(O)cc1Cl)NCC2 (stereo not given) | 19.6% | -6.96% | -21.67%
Cc1ccc(CN2CCC(C(=O)Nc3ccc(-c4cc5ccccc5[nH]4)cc3)CC2)o1 | 7.05% | -19.7% | -4.815%
COc1ccc(C(O)(CCC(C)C)C(CN2CCOCC2)c2ccc(Cl)cc2)cc1.Cl (stereo not given) | -0.282% | 6.32% | 5.473%
COc1ccc(C2NCCc3c2[nH]c2ccccc32)cc1CN1CCN(c2ccc(F)cc2)CC1.Cl (stereo not given) | 5.86% | -18.1% | -1.071%
O=C(NCc1ccco1)C1CCN(S(=O)(=O)c2ccc(Cl)cc2)CC1 | 46.2% | -26.9% | 33.84%
CCOc1cc(Br)c(C(C)NC(=O)c2cccc(OC)c2)cc1OCC (stereo not given) | 10.3% | -28.3% | -20.12%
O=c1c2c([nH]c3ccccc13)CCCC2 | 51% | -24.5% | 6.827%
CCN(CC)CCn1c(=N)n(CC(O)c2ccc(Cl)c(Cl)c2)c2ccccc21.Cl (stereo not given) | -66.5% | 7.92% | -13%
CCN1CCN(Cc2ccc(NC(=O)c3cc4ccc5cccnc5c4[nH]3)cc2)CC1 | 15.9% | -5.39% | -14.48%
CCOc1ccc(C2N(C)c3ccccc3N2C)cc1 | -6.18% | 9.89% | -11.42%
COc1nc(Nc2ccc(C(C)C)cc2)nc(OC)n1 | -0.697% | -59.5% | -7.623%
CC(C)CNC(=O)c1c(N)n(CCc2ccccc2F)c2nc3ccccc3nc12 | 24.1% | -24.2% | -6.274%
CCOc1ccccc1CN1CCc2nc3cc(C(C)(C)C)nn3c(O)c2C1 | 3.23% | 5.87% | 19.57%
